Where a name gives a salt, the structure may show the parent alone.
Target: human KAT II (hKAT II) enzyme (Homo sapiens, UniProt Q8N5Z0)
Assay: KAT II Inhibition Spectra Assay
Type: biochemical
Settings: single determination unless marked a (geometric mean of 2-4 determinations); decrease in OD370, L-kynurenine substrate, 37° C. for 15-20 h; hydrochloride salt; read-out: KATII IC50
Protocol: KAT II Inhibition Spectra Assay
Formation of kynurenic acid (KYNA) is indirectly assessed by a decrease in light absorbance at 370 nm (OD370) as the L-kynurenine (KYN) substrate is converted by the human KAT II (hKAT II) enzyme into KYNA. An inhibitor would therefore inhibit the decrease in OD370.
The protocol was performed by placing the following reagents into a Costar 384 well black plate (30 μL total assay volume/well): • 10 μL of 3× concentrated compound; • 10 μL of 3× concentrated substrate mix (BGG (Sigma G-5009); 3 mM L-Kynurenine in 150 mM Tris Acetate (Sigma K3750); 3 mM α-ketoglutaric acid in 150 mM Tris Acetate (Sigma K2010); and 210 μM pyridoxal 5-phosphate (PLP) in 150 mM Tris Acetate (Sigma 9255)); and • 10 μL of 3× concentrated enzyme (15 nM enzyme in 150 mM Tris Acetate with 0.3% bovine serum).
Plates were sealed and incubated at 37° C. for 15-20 h before reading OD370 on a SpectraMax Plus plate reader. IC50s were generated by comparing the efficacy of compounds across a concentration range to inhibit a reduction in the OD370 value relative to assay wells with DMSO added in place of concentrated compound. Biological data for the Examples may be found in Table 2.

Sequence of human KAT II (hKAT II) enzyme (Q8N5Z0 30-425): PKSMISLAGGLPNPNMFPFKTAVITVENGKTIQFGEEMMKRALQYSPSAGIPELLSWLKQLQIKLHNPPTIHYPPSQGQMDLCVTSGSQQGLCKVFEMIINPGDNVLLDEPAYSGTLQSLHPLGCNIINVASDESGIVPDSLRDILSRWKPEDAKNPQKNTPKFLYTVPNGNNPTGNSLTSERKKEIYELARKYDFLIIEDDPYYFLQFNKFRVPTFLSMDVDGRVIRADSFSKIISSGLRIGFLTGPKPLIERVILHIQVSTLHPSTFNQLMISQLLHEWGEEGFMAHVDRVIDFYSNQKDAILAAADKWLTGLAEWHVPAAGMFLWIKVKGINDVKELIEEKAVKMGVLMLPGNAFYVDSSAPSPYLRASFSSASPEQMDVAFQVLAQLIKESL

Row | Compound | IC50 [nM]
1 | COc1cccc(Oc2ccc3c(c2)CC(N)c2n[nH]c(=O)n2-3)c1 (single isomer, unassigned; ent-1) [Example 1, 4-Amino-7-(3-methoxyphenoxy)-4,5-dihydro[1,2,4]triazolo[4,3-a]quinolin-1(2H)-one ENT-1, hydrochloride salt] | 188

Same assay, conditions: single determination unless marked a (geometric mean of 2-4 determinations); decrease in OD370, L-kynurenine substrate, 37° C. for 15-20 h; read-out: KATII IC50

Row | Compound | IC50 [nM]
2 | Cc1ccc(C)c(-c2ccc3c(c2)CC(N)c2n[nH]c(=O)n2-3)c1 (stereo not shown) [Example 38, 4—amino—7—(2,5-dimethylphenyl)—4,5—dihydro[1,2,4]triazolo[4,3—a]quinolin—1(2H)—one, trifluoroacetate salt] | 591
3 | NC1Cc2cc(-c3cccc(C(F)(F)F)c3)ccc2-n2c1n[nH]c2=O (stereo not shown) [Example 27, 4—amino—7—[3—(trifluoromethyl)phenyl]—4,5—dihydro[1,2,4]triazolo[4,3-a]quinolin—1(2H)—one, trifluoroacetate salt] | 215
4 | COc1cncc(-c2ccc3c(c2)CC(N)c2n[nH]c(=O)n2-3)c1 (stereo not shown) [Example 13, 4—amino—7—(5—methoxypyriclin—3—yl)—4,5—dihydro[1,2,4]triazolo[4,3—a]quinolin—1(2H)—one, trifluoroacetate salt] | 673
5 | NC1Cc2cc(-c3ccc(F)nc3)ccc2-n2c1n[nH]c2=O (stereo not shown) [Example 42, 4—amino—7—(6—fluoropyridin—3—yl)—4,5—dihydro[1,2,4]triazolo[4,3—a]quinolin—1(2H)—one, trifluoroacetate salt] | 849
6 | NC1Cc2cc(-c3ccc(F)cc3)ccc2-n2c1n[nH]c2=O (stereo not shown) [Example 24, 4—amino—7—(4—fluorophenyl)—4,5—dihydro[1,2,4]triazolo[4,3—a]quinolin—1(2H)—one. trifluoroacetate salt] | 1080
7 | COc1ccc(-c2ccc3c(c2)CC(N)c2n[nH]c(=O)n2-3)cn1 (stereo not shown) [Example 22, 4—amino—7—(6—methoxypyridin—3—yl)—4,5—dihydro[1,2,4]triazolo[4,3—a]quinolin—1(2M—one, trifluoroacetate salt] | 1900
8 | NC1Cc2cc(-c3cccc(Cl)c3)ccc2-n2c1n[nH]c2=O (stereo not shown) [Example 14, 4—amino—7—(3—chlorophenyl)—4,5—dihydro[1,2,4]triazolo[4,3—a]quinolin—1(2H)—one, trifluoroacetate salt] | 156
9 | Cc1cc(-c2ccc3c(c2)CC(N)c2n[nH]c(=O)n2-3)cnc1F (stereo not shown) [Example 43, 4—amino—7—(6—fluoro—5—methylpyridin—3—yl)—4,5—dihydro[1,2,4]triazolo[4,3—a]quinolin—1(2H)—one, trifluoroacetate salt] | 263
10 | Cn1cc2c(-c3ccc4c(c3)CC(N)c3n[nH]c(=O)n3-4)cccc2n1 (stereo not shown) [Example 41, 4—amino—7—(2—methyl—2H—indazol—4—yl)—4,5—dihydro[1,2,4]triazolo[4,3—a]quinolin—1(2H)—one, trifluoroacetate salt] | 1080
11 | NC1Cc2cc(-c3cccc(F)c3)ccc2-n2c1n[nH]c2=O (stereo not shown) [Example 34, 4—amino—7—(3—fluorophenyl)—4,5—dihydro[1,2,4]triazolo[4,3—a]quinolin—1(2H)—one, trifluoroacetate salt] | 415
12 | Cn1nccc1-c1ccc2c(c1)CC(N)c1n[nH]c(=O)n1-2 (stereo not shown) [Example 36, 4—amino—7—(1—methyl—1H—pyrazol—5—yl)—4,5—dihydro[1,2,4]triazolo[4,3—a]quinolin—1(2H)—one, trifluoroacetate salt] | 632

Second part, the compound after the results:

Row | IC50 [nM] | Compound
13 | 751 | COc1ccccc1-c1ccc2c(c1)CC(N)c1n[nH]c(=O)n1-2 (stereo not shown) [Example 19, 4—amino—7—(2—methoxyphenyl)—4,5—dihydro[1,2,4]triazolo[4,3—a]quinolin—1(2H)—one, trifluoroacetate salt]
14 | 361 | NC1Cc2cc(-c3ccccc3F)ccc2-n2c1n[nH]c2=O (stereo not shown) [Example 29, 4—amino—7—(2—fluorophenyl)—4,5—dihydro[1,2,4]triazolo[4,3—a]quinolin—1(2H)—one, trifluoroacetate salt]
15 | 1240 | COc1cccc(Oc2ccc3c(c2)CC(N)c2nncn2-3)c1 (single isomer, unassigned; ent-2) [Example 5, 7-(3-Methoxyphenoxy)-4,5-dihydro[1,2,4]triazolo[4,3-a]quinolin-4-amine, ENT-2]
16 | 91.4 | NC1Cc2cc(Oc3cccc(C(F)(F)F)c3)ccc2-n2c1n[nH]c2=O (stereo not shown) [Example 3, 4-amino-7-[3-(trifluoromethyl)phenoxy]-4,5-dihydro[1,2,4]triazolo[4,3-a]quinolin-1(2H)-one, hydrochloride salt]
17 | 1130 | COc1cc2c(cc1Cc1ccccc1)CC(N)c1nncn1-2 (stereo not shown) [Example 46, 7—benzyl—8—methoxy—4,5—dihydro[1,2,4]triazolo[4,3—a]quinolin—4—amine, hydrochloride salt]
18 | 413 | NC1Cc2cc(Oc3ccccc3)ncc2-n2cnnc21 (stereo not shown) [Example 7, 7-Phenoxy-4,5-dihydro[1,2,4]triazolo[4,3-a][1,7]naphthyridin-4-amine, hydrochloride salt]
19 | 286 | NC1Cc2cc(Oc3ccccc3)cnc2-n2cnnc21 (single isomer, unassigned) [Example 8, 3—phenoxy—5,6—dihydro[1,2,4]triazolo[4,3—a][1,8]naphthyridin—6—amine ENT—1]
20 | 320 | NC1Cc2cc(-c3ccccc3C(F)(F)F)ccc2-n2c1n[nH]c2=O (stereo not shown) [Example 40, 4—amino—7—[2—(trifluoromethyl)phenyl]—4,5—dihydro[1,2,4]triazolo[4,3—a]quinolin—1(2H)—one, trifluoroacetate salt]
21 | 664 | NC1Cc2cc(-c3cccc4ncccc34)ccc2-n2c1n[nH]c2=O (stereo not shown) [Example 16, 4—amino—7—(quinolin—5—yl)—4,5—dihydro[1,2,4]triazolo[4,3—a]quinolin—1(2H)—one, trifluoroacetate salt]
22 | 59 | NC1Cc2cc(Oc3ccccc3)cnc2-n2c1n[nH]c2=O (single isomer, unassigned; ent-1) [Example 2, 6-Amino-3-phenoxy-6,8-dihydro[1,2,4]triazolo[4,3-a][1,8]naphthyridin-9(5H)-one, ENT-1]

Reference: patent publication US20150175603A1, “TRICYCLIC COMPOUNDS AS KAT II INHIBITORS” (PFIZER INC., priority 2012, published 2015)
